In US20250026734A1 (priority 2021, published 2025):
Where “and” joins values, the source holds several entries; their conditions need not be identical. Equal entries are not always repeated. Where two headings read alike, the source gives them in different places.

System: SARS-CoV-2 strains
Format: cell-based

`CCCCn1c(=O)c2ccc(NCCO)cc2c2cc(C(O)(C(F)(F)F)C(F)(F)F)ccc21` [NR-31] was tested, and the EC50 (read-out: EC50) was 5.12 µM and 3.47 µM and 3.53 µM and 5.28 µM and 3.37 µM and 4.07 µM and 3.62 µM and the EC50 (read-out: EC50 (inhibits cell death induced by SARS-CoV-2 infection by 50%)) was 4.4 µM.
